Experimental data from article PMC3506619, “NADP^+ Binding to the Regulatory Subunit of Methionine Adenosyltransferase II Increases Intersubunit Binding Affinity in the Hetero-Trimer” (PLoS ONE, 2012).
Positions count from the first letter of the chain named.

Key:
[1] = target: T1, MAT β subunit (regulatory β subunit, V1 form) (Homo sapiens, UniProt Q9NZL9, K163A/Y159F); test: isothermal titration calorimetry; assay type: binding
T1 construct: gene MAT2B; full length V1 from GST fusion in E. coli, TEV-cut, GSH linker retained at N-terminus; monomer/dimer equilibrium
T1 sequence (Q9NZL9 1-334 Y159F/K163A): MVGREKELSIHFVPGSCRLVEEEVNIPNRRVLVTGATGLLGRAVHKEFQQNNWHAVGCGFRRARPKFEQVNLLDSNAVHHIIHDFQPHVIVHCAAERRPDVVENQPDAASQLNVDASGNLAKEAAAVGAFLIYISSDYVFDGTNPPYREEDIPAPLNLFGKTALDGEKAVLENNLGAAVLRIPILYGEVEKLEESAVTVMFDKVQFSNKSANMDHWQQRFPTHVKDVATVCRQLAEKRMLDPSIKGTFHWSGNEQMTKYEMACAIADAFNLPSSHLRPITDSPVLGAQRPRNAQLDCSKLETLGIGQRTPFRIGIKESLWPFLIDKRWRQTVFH

[2] = target: T2, MAT β subunit (regulatory β subunit, V1 form) (Homo sapiens, UniProt Q9NZL9); test: isothermal titration calorimetry; assay type: binding; settings: read-out: NADP^+→β
T2 construct: gene MAT2B; full length V1 from GST fusion in E. coli, TEV-cut, GSH linker retained at N-terminus; monomer/dimer equilibrium
T2 sequence (Q9NZL9 1-334): T1 sequence (Q9NZL9 1-334 Y159F/K163A) with F159Y, A163K
Description: isothermal titration calorimetry on MAT β subunit (regulatory β subunit, V1 form)

[3] = target: T3, MAT II (α2 dimer + wild type β hetero-trimer) (Homo sapiens, UniProt P31153, G193S/A233V, form not given); test: MAT activity assay (AdoMet synthesis); assay type: biochemical; settings: 5 mM methionine, 37 °C, no added NADP+
T3 construct: gene MAT2A; hetero-trimer 2:1; with Methionine adenosyltransferase 2 subunit beta
Description: MAT activity assay (AdoMet synthesis) on MAT II (α2 dimer + wild type β hetero-trimer)

[4] = target: T4, refolded-α2 (MAT α2 homo-dimer) (Homo sapiens, UniProt P31153, G193S/A233V); test: MAT activity assay (AdoMet synthesis); assay type: biochemical; settings: 5 mM methionine, 37 °C, no added NADP+
T4 construct: gene MAT2A; 43447 Da; dimer (tetramer at higher concentration); all cloned ORFs carry A233V and G193S
Description: MAT activity assay (AdoMet synthesis) on refolded-α2 (MAT α2 homo-dimer)

[5] = target: T5, Truncated MAT II (α2 dimer + ΔS16 β) (Homo sapiens, UniProt P31153, G193S/A233V); test: MAT activity assay (AdoMet synthesis); assay type: biochemical; settings: 5 mM methionine, 37 °C, no added NADP+
T5 construct: gene MAT2A; ratio 2:1; with Methionine adenosyltransferase 2 subunit beta
Description: MAT activity assay (AdoMet synthesis) on Truncated MAT II (α2 dimer + ΔS16 β)

T5 sequence (P31153 whole entry G193S/A233V, stated change not applied, the tested form may be a part): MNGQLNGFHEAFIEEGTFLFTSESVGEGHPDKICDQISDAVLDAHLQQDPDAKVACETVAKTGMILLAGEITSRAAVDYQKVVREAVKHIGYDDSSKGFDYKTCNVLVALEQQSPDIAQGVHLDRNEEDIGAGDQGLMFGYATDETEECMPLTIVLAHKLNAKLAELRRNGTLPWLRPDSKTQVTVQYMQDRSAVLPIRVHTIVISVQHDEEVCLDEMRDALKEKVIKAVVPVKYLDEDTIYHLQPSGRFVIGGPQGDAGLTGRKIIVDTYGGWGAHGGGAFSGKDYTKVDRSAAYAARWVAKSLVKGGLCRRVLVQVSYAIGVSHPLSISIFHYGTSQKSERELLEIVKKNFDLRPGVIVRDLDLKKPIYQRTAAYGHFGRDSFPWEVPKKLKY
T5 sequence (Q9NZL9 17-334 partner limits assumed, stated change not applied): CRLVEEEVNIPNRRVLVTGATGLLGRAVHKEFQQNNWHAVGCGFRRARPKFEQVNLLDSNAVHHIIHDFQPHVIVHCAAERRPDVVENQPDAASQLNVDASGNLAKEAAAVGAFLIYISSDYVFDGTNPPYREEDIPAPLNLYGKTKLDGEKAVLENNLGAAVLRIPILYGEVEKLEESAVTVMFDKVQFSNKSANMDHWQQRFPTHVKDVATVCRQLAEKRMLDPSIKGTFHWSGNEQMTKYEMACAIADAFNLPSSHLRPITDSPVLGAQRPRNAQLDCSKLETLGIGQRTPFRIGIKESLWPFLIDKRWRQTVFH
T4 sequence (P31153 whole entry G193S/A233V): as the sequence (P31153 whole entry G193S/A233V, stated change not applied, the tested form may be a part) above
T3 sequence (P31153 whole entry G193S/A233V, form open, one chain of several): as the sequence (P31153 whole entry G193S/A233V, stated change not applied, the tested form may be a part) above

SMILES	Kd [1] [nM]	Kd [2] [nM]	Km [3] [µM]	Km [4] [µM]	Km [5] [µM]
NC(=O)c1ccc[n+]([C@@H]2O[C@H](COP(=O)(O)OP(=O)(O)OC[C@H]3O[C@@H](n4cnc5c(N)ncnc54)[C@H](OP(=O)(O)O)[C@@H]3O)[C@@H](O)[C@H]2O)c1 [NADP^+]	> 150000	1700			
Nc1ncnc2c1ncn2[C@@H]1O[C@H](COP(=O)(O)OP(=O)(O)OP(=O)(O)O)[C@@H](O)[C@H]1O [ATP]			125 ± 32.2	254 ± 66.2	151 ± 81.4
